Source: patent US20240391928A1, “COMPOSITIONS FOR THE TREATMENT OF FOOD AND CHEMICAL ADDICTION AND METHODS OF MAKING AND USING SAME” (Duke University, priority 2021, published 2024)

Tests used:
[1] = molecular target: hGHSR1a^WT (Homo sapiens, UniProt Q92847); experiment: SRF-RE transcriptional activity; assay type: cell-based; design: expressed in transfected cells; HEK293/S Gαq/11 KO and parental WT (iCa2+)
Procedure: The next morning, media was removed and cells were serum starved with 90 μL of opti-MEM (containing no serum) for 2 hours at 37° C. Cells were then stimulated with 10× test compounds (diluted in serum-free opti-MEM) for 5 hours at 37° C. in a humidified incubator. Cells were then lysed in 20 μL of 1× passive lysis buffer (Promega) for 10 minutes on a shaker (RT). To measure luminescence, 40 μL of luciferin (in HBSS supplemented with 20 mM HEPES) was injected into in each well and immediately read by a Mithras 940 plate reader for 10 seconds.

[2] = molecular target: GHSR1a (Homo sapiens, UniProt Q92847); experiment: PRESTO-Tango GPCRome β-arr2 recruitment screen; assay type: cell-based; design: expressed in transfected cells; conditions: N8279 1 μM
Procedure: Hits were defined as >3-fold activation above baseline. […] The assay quality was assessed by plotting duplicate, independent trial averages (derived from 4 independent wells) for each receptor as a point (X,Y). The corresponding plot of points for an ideal assay were fit by a regression line with the slope=1.

Chain of hGHSR1a^WT (Q92847 whole entry): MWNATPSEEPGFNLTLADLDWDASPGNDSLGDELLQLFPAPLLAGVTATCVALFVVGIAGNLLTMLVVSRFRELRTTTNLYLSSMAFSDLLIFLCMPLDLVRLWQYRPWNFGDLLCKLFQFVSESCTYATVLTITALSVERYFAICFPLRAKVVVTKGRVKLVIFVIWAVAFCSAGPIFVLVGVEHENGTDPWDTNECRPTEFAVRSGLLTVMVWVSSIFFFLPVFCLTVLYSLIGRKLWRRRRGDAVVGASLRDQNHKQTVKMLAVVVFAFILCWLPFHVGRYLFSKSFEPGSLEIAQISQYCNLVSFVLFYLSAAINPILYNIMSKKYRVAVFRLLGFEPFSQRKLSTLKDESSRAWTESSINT
Chain of GHSR1a (Q92847 whole entry): as above

COc1ccc(C(=O)c2c(C(=O)NCCCN(C)C)oc3ccc(Cl)cc3c2=O)cc1OC [Example N8279, 6-Chloro-3-(3,4-dimethoxybenzoyl)-N-(3-(dimethylamino)propyl)-4-oxo-4H-chromene-2-carboxamide]
SRF-RE potency reduction relative to L585 [1]: ~10 fold
SRF-RE potency reduction relative to ghrelin [1]: ~15 fold
SRF-RE transcription efficacy in words [1]: full agonist
activation above baseline at GHSR1a [2]: 6 fold
